Measured values published in patent EP2565188A1, “Novel photoactivatable paclitaxel derivatives and uses thereof, in particular in cellbiology and cancer treatment” (Max-Planck-Gesellschaft zur Förderung der Wissenschaften …, priority 2011, dated 2013).

Assays:
HeLa cells [1] = assay type: cell-based, Human; conditions: 48 h
Description: (§1) Human cervix carcinoma cells, HeLa cells (#ACC57, DMSZ, Germany), were cultured in DMEM medium (Invitrogen) supplemented with 10% fetal calf serum (FCS, Gibco) in a humidified incubator at 37°C/5%CO2.
In order to evaluate the bioactivity of the caged PCT derivatives, their cytotoxicity was tested in vitro using HeLa cells. Cells were incubated with PTX and caged PTX derivatives at concentrations between 0.01 and 10 µM.
The effect of PTX and derivatives on cell vitality was measured in a combined assay determining cytotoxicity and cell number by propidium iodide (PI) staining. HeLa cells (2x10^4 cells/well) were diluted in cell culture medium (DMEM, 10 % FCS) and seeded in 96 well-plates (black plate, clear bottom, corning, Amsterdam, Netherlands). The culture medium was replaced after ~16h by compound supplemented medium (200 µL, DMEM, 10 % FCS, 1 % DMSO) or medium without compound (DMEM, 10 % FCS, 1 % DMSO) as a specific control. After 48 h, dead cells with permeable cell membranes were stained with PI ([…], 15 min at 37°C, 5% CO2) and the PI fluorescence intensity was measured with a fluorescence plate reader (excitation wavelength 530 nm, emission wavelength 620 nm, Tecan Infinite M1000, Austria). Subsequently, the cells were lysed with 2% Triton X-100 diluted in DMEM (0.3% Triton X-100 per well, 15 min at 37°C, 5% CO2 and the PI fluorescence was measured again. The vitality of the cells was calculated by the ratio of dead cells (DC) before lyses and the total cell number (TCN) after lyses (1-DC/TCN).

[2] = Photocleavage study: irradiation at 360 nm, composition by HPLC; assay type: physicochemical; conditions: 1 mM, 5% water in acetonitril, share of the labelled species
Description: The photolysis of the compounds 2'-Nvoc-PTX and 2',7-bisNvoc-PTX was followed by UV and HPLC analysis of the correspondent solutions after exposure to light at λmax = 360 nm (2.7 mW/cm^2).
3 ml of a 1 mM solution of caged PTX in acetonitrile containing 5% water was placed into a quartz cuvette and was exposed at 360 nm for different irradiation times. Aliquots of 50 µl were taken after various irradiation times, and each aliquot was splitted in two parts. 20 µl were diluted to 400 µl to obtain 50 µM solution for UV-Vis characterisation. The 30 µl left from each aliquot were injected into the HPLC (20 µl loop, analytical column) in order to estimate the composition of the irradiated mixture.
Photocleavage of compound 2',7-bisNvoc-PTX was expected to yield the mono-substituted species 2'-Nvoc-PTX and 7-Nvoc-PTX as intermediates that can be further photolyzed to afford free PTX. In fact, HPLC analysis (Fig. 1) confirmed the presence of 2'-Nvoc-PTX (retention time, r.t.= 16.7 min) and 7-Nvoc-PTX (r.t. = 18.2 min) together with the starting compound 2',7-bisNvoc-PTX (r.t. = 21.3 min) and the fully deprotected PTX (r.t. = 11.1 min). The ratio of these compounds within the composition of the irradiated mixture changes with the exposure dose. Fig. 2 and Table B below show the compositional evolution of the mixture with increasing irradiation time as obtained by HPLC analysis. […] However, the influence of other structural factors in the photolytic mechanism cannot be ruled out. Compound 7-Nvoc-PTX could also be isolated from the irradiated mixture in milligram scale. Table B. Molar composition of a solution of 2',7-bisNvoc-PTX (1 mM, 5% water in acetonitril) after different irradiation times, as determined by analysis of HPLC graphs (Fig. 2)

[3] = Solubility test of 10 µM solutions in 1:1000 DMSO:PIPES buffer; assay type: physicochemical
Description: 10 mM solutions of PTX derivatives in DMSO were prepared. All substances were soluble in DMSO at this concentration. 10 µM solutions of were obtained by 1:1000 dilution of the stock solution into 80 mM PIPES buffer pH 6.8, containing 2 mM MgCl2 and 1 mM EGTA. Table A: solubility test of 10 µM solutions of PTX derivatives in 1:1000 DMSO:PIPES buffer

HeLa cells [4] = experiment: Live cell imaging of the microtubule network (Tubulin Tracker / DRAQ5, CLSM); assay type: cell-based, Human; conditions: 24 h
Description: as §1
In order to visualize the influence of the PTX derivatives in the microtubule network of the cell, a live cell microscopy analysis of HeLa cells after incubation with 10 µM PTX derivatives for 24 hours was performed.
Specifically, microtubules and nuclei of HeLa cells were fluorescently stained with Tubulin Tracker (Invitrogen) and DRAQ5 (biostatus, United Kingdom) respectively, and imaged by a Leica TCS SP5 confocal laser scanning microscopy (CLSM). 30x10^4 HeLa cells were seeded in 8-well chamber slides (Lab-Tek, nunc, Germany) and the culture medium was replaced after ~16 h by compound supplemented medium (250 µL, DMEM, 10% FCS, 1% DMSO) or medium without compound (DMEM, 10% FCS, 1% DMSO) as a specific control. After 24h, cells were carefully washed with Hank's Buffered Saline Solution (HBSS, with Ca^2+ and Mg^2+, Invitrogen) and the buffer was replaced by a staining solution containing 250 nM Tubulin Tracker (Invitrogen) and 5 µM DRAQ5. The cells were stained for 30 min at 37°C/5% CO2 in a humidified incubator. The staining solution was replaced by HBSS and the cells were directly imaged with a 100x plan apochromat (1.4 NA) oil immersion objective on the CLSM system equipped with a CO2 incubator and a temperature control. Tubulin Tracker was excited with an argon laser (488 nm) and the emission was detected by 500-580 nm. DRAQ5 was excited with a HeNe laser (633 nm) and the emission was detected by 650-730 nm. The images have a voxel height and width of 90 nm. Bright field images grabbed with an Olympus IX-70 inverted microscope with a 20x phase contrast objective. Image processing performed with Leica LAS AF lite and ImageJ (Fiji).

## CC(=O)O[C@H]1C(=O)[C@@]2(C)[C@H]([C@H](OC(=O)c3ccccc3)[C@]3(O)C[C@H](OC(=O)[C@H](O)[C@@H](NC(=O)c4ccccc4)c4ccccc4)C(C)=C1C3(C)C)[C@]1(OC(C)=O)CO[C@@H]1C[C@@H]2O [PTX, Paclitaxel]
HeLa cells [1]
  concentration at which cell vitality is significantly reduced: 0.1 µM
[2]; 360 nm (2.7 mW/cm^2), irradiation time 0 min
  Molar composition of a solution of 2',7-bisNvoc-PTX after irradiation: 0%
[2]; 360 nm, irradiation time 60 min
  Molar composition of a solution of 2',7-bisNvoc-PTX after irradiation: 0%
[2]; 360 nm, irradiation time 270 min
  Molar composition of a solution of 2',7-bisNvoc-PTX after irradiation: 1.7%
[2]; 360 nm, irradiation time 450 min
  Molar composition of a solution of 2',7-bisNvoc-PTX after irradiation: 6.0%
[2]; 360 nm, irradiation time 570 min
  Molar composition of a solution of 2',7-bisNvoc-PTX after irradiation: 10.6%
[2]; 360 nm, irradiation time 735 min
  Molar composition of a solution of 2',7-bisNvoc-PTX after irradiation: 18.5%
[2]; 360 nm, irradiation time 820 min
  Molar composition of a solution of 2',7-bisNvoc-PTX after irradiation: 21.2%
[2]; 360 nm, irradiation time 1585 min
  Molar composition of a solution of 2',7-bisNvoc-PTX after irradiation: 60.5%
[3]; 10 µM in 1:1000 DMSO:PIPES buffer (80 mM, pH 6.8), time 1 hr
  solubility test (appearance of solution): clear solution
[3]; 10 µM in 1:1000 DMSO:PIPES buffer (80 mM, pH 6.8), time 8 hrs
  solubility test (appearance of solution): clear solution
[3]; 10 µM in 1:1000 DMSO:PIPES buffer (80 mM, pH 6.8), time 24 hrs
  solubility test (appearance of solution): Suspension
[3]; 10 µM in 1:1000 DMSO:PIPES buffer (80 mM, pH 6.8), time 30 hrs
  solubility test (appearance of solution): white precipitate
[3]; 10 µM in 1:1000 DMSO:PIPES buffer (80 mM, pH 6.8, 2 mM MgCl2, 1 mM EGTA), time 5 min
  solubility test (appearance of solution): clear solution
HeLa cells [4]; 10 µM
  cell morphology / mitosis in microscopy images: mitosis of HeLa cells was blocked
  microtubule staining by Tubulin Tracker (fluorescence CLSM): absence of the mitotic spindle stained with Tubulin Tracker
HeLa cells [4]; patterns similar between the compounds (Fig. 6)
  concentration triggering the multiple nuclei pattern: 2 nM
